Reference: patent publication US5428041A, “Antihypercholesterolemic bis-trifluoromethyl-substituted imidazolines and derivatives thereof” (The Du Pont Merck Pharmaceutical Company, priority 1992, dated 1995)
Where a name gives a salt, the structure may show the parent alone. Read-outs that look alike come from different tables or passages of the source.

Experiments:
[1] = test system: murine macrophage-like cell line J744.A1; assay: Inhibition of cholesterol esterification in mammalian cells (macrophage); type: cell-based; details: Mus musculus; J744.A1 macrophage-like cells loaded with ac-LDL, 14C oleic acid
Method: B. Assay of the Inhibition of Cholesterol Esterification in Mammalian Cells The esterification of cholesterol was determined in the murine macrophage-like cell line J744.A1. Cells were seeded in 35 mm wells at a density of 300,000 cells per well in 2 mls of Dulbecco's Modified Eagle Medium (DMEM) supplemented with 10% fetal bovine serum (FBS). Cells were incubated at 37° C. in an atmosphere of 5% CO2 and 93% humidity. After 24 hours the media was changed to 0.68 mls 10% FBS-DMEM containing 34 μg of acetylated human low density lipoprotein (ac-LDL) to increase the intracellular concentration of cholesterol and promote esterification. At 41 hours, various inhibitors were added to the cells in DMSO (10 μl/ml maximum). At 43 hours, the cells were pulsed with 0.1 mM ^14 C oleic acid (10,000 dpm/nmol) complexed with BSA (bovine serum albumin) to follow cholesterol ester formation. The experiment was terminated at 45 hours by washing the monolayers 3 times with 3 ml of Tris-buffered saline at 4° C. The lipids were extracted by incubating the monolayers with 1.5 ml of hexane: isopropanol (3:2, v/v) for 30 min. under gentle agitation. During this period, 10,000 dpm ^3 H-cholesteryl linoleate and 10 μg of cholesteryl oleate were added as an internal standard and carrier respectively. The organic solvent was remoted and the cells were washed with an additional 1.0 ml of hexane: isopropanol which was combined with the original extract. The cells were allowed to dry overnight, digested with 1.5 ml of 0.2 N sodium hydroxide for 1 hour and an aliquot of the solubilized protein used for protein determination using the Lowry method. […] Individual lipids were visualized with iodine and the cholesteryl ester spot cut out and transferred to scintillation vials to determine the amount of radioactivity.

[2] = biological target: T1, Acyl-CoA: Cholesterol Acyltransferase (ACAT) (Rattus norvegicus, UniProt Q7TQM4); assay: Inhibition of Acyl-CoA:Cholesterol Acyltransferase (ACAT) in hepatic microsomes; type: biochemical, Sprague Dawley rat
T1 construct: centrifuged at 105,000×g for 1 hour to pellet the microsomes; from tissue; host or cells: liver microsomes of fasted male Sprague Dawley rats
T1 sequence (Q7TQM4 1-524): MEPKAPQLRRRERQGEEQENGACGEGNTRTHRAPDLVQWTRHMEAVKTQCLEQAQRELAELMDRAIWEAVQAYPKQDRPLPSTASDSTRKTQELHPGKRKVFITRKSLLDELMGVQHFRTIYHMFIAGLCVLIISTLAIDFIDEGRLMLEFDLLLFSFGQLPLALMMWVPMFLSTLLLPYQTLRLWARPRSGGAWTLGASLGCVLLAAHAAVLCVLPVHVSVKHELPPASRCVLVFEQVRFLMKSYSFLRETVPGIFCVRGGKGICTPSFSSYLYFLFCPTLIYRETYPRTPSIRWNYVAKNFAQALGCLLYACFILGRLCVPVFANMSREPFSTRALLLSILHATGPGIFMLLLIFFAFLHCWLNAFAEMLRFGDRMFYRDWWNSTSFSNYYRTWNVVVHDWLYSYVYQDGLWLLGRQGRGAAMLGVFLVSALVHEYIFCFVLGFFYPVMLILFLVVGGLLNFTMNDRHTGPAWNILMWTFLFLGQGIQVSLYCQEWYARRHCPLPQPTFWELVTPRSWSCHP
Method: A. Assay of the Inhibition of Acyl-CoA: Cholesterol Acyltransferase (ACAT) in Hepatic Microsomes
The ability of the compounds to inhibit ACAT, the enzyme responsible for the intracellular synthesis of cholesteryl esters, was tested as follows. Male Sprague Dawley rates weighing 150-300 g were fed rat chow ad libitum. The animals were fasted for twenty-four hours prior to being sacrificed by decapitation. The livers were perfused in situ with 50 ml of cold 0.25M sucrose, excised and homogenized in three volumes of 0.1M phosphate buffer, pH 7.4, that contained 0.5 mM EDTA (ethylenediaminetetraacetic acid), 1.0 mM glutathione, 0.25M sucrose and 20 mM leupeptin. Microsomes were obtained by differential centrifugation; the supernatant from an initial spin at 15,000×g for 15 minutes was centrifuged at 105,000×g for 1 hour to pellet the microsomes. The microsomes were suspended in homogenization buffer, reisolated by centrifugation, and stored at -70° C. Microsomes were used within one month of preparation.
The control assay in a final volume of 200 μl consisted of 200 μg of microsomal protein, 75 μM ^14 C-oleoyl-CoA (10,000 dpm/nmol) in 0.1M phosphate, pH 7.4, that contained 1 mM glutathione. Compounds were added in 5-10 μl of DMSO (dimethyl sulfoxide or ethanol) and additional controls were run with DMSO or ethanol only. All components, except the oleoyl-CoA, were preincubated for 15 min. at 37° C. prior to the initiation of the reaction by the addition of oleoyl CoA. The assay was terminated after 10 min by the addition of 4 ml of chloroform:methanol (2:1, v/v). 20,000 dpm of ^3 H-cholesteryl oleate and 10 μg of unlabeled cholesteryl oleate and oleic acid were added as an internal standard and carrier, respectively. After allowing 10 min. for lipid extraction, 0.8 ml of deionized water was added to separate the solution into two phases. The lower chloroform phase was collected, dried under nitrogen and resuspended in 100 μl of chloroform. The sample containing the neutral lipids was spotted onto a Gelman ITLC-SA polysilicic acid gel-impregnated sheet, which was developed using a hexane: diethyl ether: acetic acid (170:30:1 v/v/v) mobile phase. The lipids were visualized by their interaction with iodine vapor and the cholesteryl ester spot was scraped into a scintillation vial and counted. The specific activity of ACAT in the control incubation averaged 260 pmol/min/mg microsomal protein. The inhibition of ACAT activity by the compounds is shown in Table 7; the data are expressed as the concentration at which ACAT activity is inhibited by 50% (IC50).

[3] = rat hepatic microsomes, 14C-oleoyl-CoA, 37° C., pH 7.4, read-out: In Vitro ACAT IC50

Row | Structure (SMILES) | IC50 [1] [µM] | IC50 [2, 3] [µM] | IC50 [2] [µM]
1 | CC(C)c1ccc(NC(=O)N(C)C2N(C)C(c3ccc(F)cc3)=NC2(C(F)(F)F)C(F)(F)F)cc1 (centres unmarked) [Example 27, N-[4,4-bis(trifluoromethyl)-2-(4-fluorophenyl)-4,5-dihydro-1-methyl-1H-imidazol-5-yl]-N'-4-isopropylphenyl-N-methylurea] | 16 | 3 | –
2 | CCCCCCCCCCCC(=O)N(C)C1N(C)C(c2ccc(F)cc2)=NC1(C(F)(F)F)C(F)(F)F (centres unmarked) [Example 17] | – | 6 | –
3 | Cc1ccc(C(=O)N=C2N(C)C(c3ccc(C)cc3)=NC2(C(F)(F)F)C(F)(F)F)cc1 [Example 5] | 62 | 20 | –
4 | COc1ccc(C2=NC(C(F)(F)F)(C(F)(F)F)C(N(C)C(=O)CCCC(C)C)N2C)cc1 (centres unmarked) [Example 34, N-[4,4-bis(trifluoromethyl)-2-(4-methoxyphenyl)-4,5-dihydro-1-methyl-1H-imidazol-5-yl]-N,5-dimethylhexanamide hydrochloride] | – | 9 | –
5 | CN(C(=O)c1ccc(C(C)(C)C)cc1)C1N(C)C(c2ccc(F)cc2)=NC1(C(F)(F)F)C(F)(F)F (centres unmarked) [Example 13, N-[4,4-bis(trifluoromethyl)-2-(4-fluorophenyl)-4,5-dihydro-1-methyl-1H-imidazol-5-yl]-4-(1,1-dimethylethyl)-N-methylbenzamide] | 18 | 4 | –
6 | CN1C(c2ccc(F)cc2)=NC(C(F)(F)F)(C(F)(F)F)C1NC(=O)c1ccc(F)cc1 (centres unmarked) [Example 10, N-[4,4-bis-(trifluoromethyl)-2-(4-fluorophenyl)-4,5-dihydro-1-methyl-1H-imidazol-5-yl]-4-fluorobenzamide] | – | 41 | –
7 | CCCCCCC(=O)N(C)C1N(C)C(c2ccc(F)cc2)=NC1(C(F)(F)F)C(F)(F)F (centres unmarked) [Example 16, N-[4,4-bis(trifluoromethyl)-2-(4-fluorophenyl)-4,5-dihydro-1-methyl-1H-imidazol-5-yl]-N-methylheptanamide hydrochloride] | 17 | 2 | –
8 | CN1C(c2ccc(F)cc2)=NC(C(F)(F)F)(C(F)(F)F)C1NC(=O)c1ccc(N2CCCCC2)cc1 (centres unmarked) [Example 31, N-[4,4-bis(trifluoromethyl)-2-(4-fluorophenyl)-4,5-dihydro-1-methyl-1H-imidazol-5-yl]-4-(1-piperidinyl) benzamide] | 13 | 10 | –
9 | CN(C(=O)c1ccc([N+](=O)[O-])cc1)C1N(C)C(c2ccc(F)cc2)=NC1(C(F)(F)F)C(F)(F)F (centres unmarked) [Example 14, N-[4,4-bis(trifluoromethyl)-2-(4-fluorophenyl)-4,5-dihydro-1-methyl-1H-imidazol-5-yl]-N-methyl-4-nitrobenzamide] | 18 | 8 | –
10 | CN1C(c2ccc(N3CCCCC3)cc2)=NC(C(F)(F)F)(C(F)(F)F)C1NC(=O)c1ccc(F)cc1 (centres unmarked) [Example 32, N-[4,4-bis(trifluoromethyl)-4,5-dihydro-1-methyl-2-[4-(1-piperidinyl)phenyl]-1H-imidazol-5-yl]-4-fluorobenzamide] | 17 | 2 | –
11 | CN(C(=O)c1ccc(F)cc1)C1N(C)C(c2ccc(C#N)cc2)=NC1(C(F)(F)F)C(F)(F)F (centres unmarked) [Example Q, N-[4,4-bis(trifluoromethyl)-2-(4-cyanophenyl)-4,5-dihydro-1-methyl-1H-imidazol-5-yl]-N-methyl-4-fluorobenzamide] | 34 | 1.91 | –
12 | CN(C(=O)Nc1ccc(F)cc1F)C1N(C)C(c2ccc(F)cc2)=NC1(C(F)(F)F)C(F)(F)F (centres unmarked) [Example 28, N-[4,4-bis(trifluoromethyl)-2-(4-fluorophenyl)-4,5-dihydro-1-methyl-1H-imidazol-5-yl]-N'-2,4-difluorophenyl-N-methylurea] | – | 22 | –
13 | CCCCOc1ccc(C(=O)N(C)C2N(C)C(c3ccc(F)cc3)=NC2(C(F)(F)F)C(F)(F)F)cc1 (centres unmarked) [Example 11, N-[4,4-bis(trifluoromethyl)-2-(4-fluorophenyl)-4,5-dihydro-1-methyl-1H-imidazol-5-yl]-4-butoxy-N-methylbenzamide] | 14 | 2 | –
14 | CN(C(=O)C12CCC(C)(C(=O)O1)C2(C)C)C1N(C)C(c2ccc(F)cc2)=NC1(C(F)(F)F)C(F)(F)F (centres unmarked) [Example 26] | 96 | 45 | –
15 | CC(C)CCCC(=O)N(C)C1N(C)C(c2ccc(F)cc2)=NC1(C(F)(F)F)C(F)(F)F (centres unmarked) [Example 18, N-[4,4-bis(trifluoromethyl)-2-(4-fluorophenyl)-4,5-dihydro-1-methyl-1H-imidazol-5-yl]-N,5-dimethyl-hexanamide hydrochloride] | – | 4 | –
16 | CN1C(=CC(=O)c2ccc(F)cc2)C(C(F)(F)F)(C(F)(F)F)N=C1c1ccc(F)cc1 [Example 96B, 2-[4,4-bis(trifluoromethyl)-2-(4-fluorophenyl)-4,5-dihydro-1-methyl-1H-imidazol-5-ylidene]-1-(4-fluorophenyl)-1-ethanone] | – | 19 | –
17 | COc1ccc(C(=O)N(C)C2N(C)C(c3ccc(F)cc3)=NC2(C(F)(F)F)C(F)(F)F)cc1 (centres unmarked) [Example 12, N-[4,4-bis(trifluoromethyl)-2-(4-fluorophenyl)-4,5-dihydro-1-methyl-1H-imidazol-5-yl]-4-methoxy-N-methylbenzamide] | – | 6 | –
18 | CN1C(=O)C(C(F)(F)F)(C(F)(F)F)N=C1c1ccc(F)cc1 [Example 123, 2-(4-fluorophenyl)-3,5-dihydro-3-methyl-4,4-bis(trifluoromethyl)-4H-imidazol-4-one] | – | > 100 | –
19 | COc1ccc(OC(=O)N=C2N(C)C(c3ccc(OC)cc3)=NC2(C(F)(F)F)C(F)(F)F)cc1 [Example 121] | – | – | 64
20 | CCOc1ccc(C(=O)NC2N(C)C(c3ccc(F)cc3)=NC2(C(F)(F)F)C(F)(F)F)cc1 (centres unmarked) [Example 30, N-[4,4-bis(trifluoromethyl)-2-(4-fluorophenyl)-4,5-dihydro-1-methyl-1H-imidazol-5-yl]-4-ethoxybenzamide] | – | 6 | –
21 | CCCCCCCCNC(=O)N(C)C1N(C)C(c2ccc(F)cc2)=NC1(C(F)(F)F)C(F)(F)F (centres unmarked) [Example 29, N-[4,4-bis(trifluoromethyl)-2-(4-fluorophenyl)-4,5-dihydro-1-methyl-1H-imidazol-5-yl]-N'-octyl-N-methylurea hydrochloride] | – | 16 | –
22 | Cc1ccc(OC(=O)N=C2N(C)C(c3ccc(C)cc3)=NC2(C(F)(F)F)C(F)(F)F)cc1 [Example 122] | – | – | 49
